# Assays:
# [1] = target: T1, BRD4 long (Homo sapiens, UniProt O60885); test: BRD4 (long) degradation assay, Western blotting; format: cell-based
# T1 construct: endogenous in cells; host or cells: HEK293T
# How it was run: (§1)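 Cell lines were grown at 37° C with 5% CO2 (HEK293T and C33A in DMEM, A549 in F-12K, 22RV1, LNCaP and Mino in RPMI-1640, K562 and MV-4-11 in IMDM, all with 10% FBS). Lysates were BCA-normalized, then SDS/PAGE Western blots were probed with target-specific antibodies and read by IR680/IR800 fluorescent secondaries on Li-Cor.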
# [2] = target: T2, BRD4 short (Homo sapiens, UniProt O60885); test: BRD4 (short) degradation assay, Western blotting; format: cell-based
# T2 construct: endogenous in cells; host or cells: HEK293T
# How it was run: as §1
# [3] = first value of cell (long/short)
# [4] = second value of cell (long/short)
# [5] = first value of cell, range with lower bound in nM and upper bound in μM
# [6] = second value of cell, range with lower bound in nM and upper bound in μM
SMILES,"DC50 [1, 3]","DC50 [2, 4]","DC50 [1, 5]","DC50 [2, 6]"
"Cc1sc2c(c1C)C(c1ccc(Cl)cc1)=N[C@@H](CC(=O)N1CCN(C(=O)/C=C/C(=O)c3ccc(=O)n(C)c3)CC1)c1nnc(C)n1-2 [Compound 242, (S,E)-1-(4-(2-(4-(4-chlorophenyl)-2,3,9-trimethyl-6H-thieno[3,2-f][1,2,4]triazolo[4,3-a][1,4]diazepin-6-yl)acetyl)piperazin-1-yl)-4-(1-methyl-6-oxo-1,6-dihydropyridin-3-y1)but-2-ene-1,4-dione]",80 nM,40 nM,–,–
"Cc1sc2c(c1C)C(c1ccc(Cl)cc1)=N[C@@H](CC(=O)N[C@H]1C[C@@H](NC(=O)/C=C/C(=O)c3ccc(=O)n(C)c3)C1)c1nnc(C)n1-2 [Compound 243, (E)-N-((1R,3s)-3-(2-((S)-4-(4-chlorophenyl)-2,3,9-trimethyl-6H-thieno[3,2-f][1,2,4]triazolo[4,3-a][1,4]diazepin-6-yl)acetamido)cyclobutyl)-4-(1-methyl-6-oxo-1,6-dihydropyridin-3-yl)-4-oxobut-2-enamide]",–,–,100 to 1000 nM,100 to 1000 nM
"Cc1sc2c(c1C)C(c1ccc(Cl)cc1)=N[C@@H](CC(=O)N[C@H]1C[C@H](NC(=O)/C=C/C(=O)c3ccc(=O)n(C)c3)C1)c1nnc(C)n1-2 [Compound 244, (E)-N-((1S,3r)-3-(2-((S)-4-(4-chlorophenyl)-2,3,9-trimethyl-6H-thieno[3,2-f][1,2,4]triazolo[4,3-a][1,4]diazepin-6-yl)acetamido)cyclobutyl)-4-(1-methyl-6-oxo-1,6-dihydropyridin-3-yl)-4-oxobut-2-enamide]",–,1000 nM,100 to 1000 nM,–
"Cc1sc2c(c1C)C(c1ccc(Cl)cc1)=N[C@@H](CC(=O)N1CCN(C(=O)/C=C/C(=O)N3CCN(C)CC3)CC1)c1nnc(C)n1-2 [Compound 245, (S,E)-1-(4-(2-(4-(4-chlorophenyl)-2,3,9-trimethyl-6H-thieno[3,2-f][1,2,4]triazolo[4,3-a][1,4]diazepin-6-yl)acetyl)piperazin-1-yl)-4-(4-methylpiperazin-1-yl)but-2-ene-1,4-dione]",> 5000 nM,> 5000 nM,–,–
"COc1ccc(NC(=O)/C=C/C(=O)N2CCN(C(=O)C[C@@H]3N=C(c4ccc(Cl)cc4)c4c(sc(C)c4C)-n4c(C)nnc43)CC2)cc1 [Compound 246, (S,E)-4-(4-(2-(4-(4-chlorophenyl)-2,3,9-trimethyl-6H-thieno[3,2-f][1,2,4]triazolo[4,3-a][1,4]diazepin-6-yl)acetyl)piperazin-1-yl)-N-(4-methoxyphenyl)-4-oxobut-2-enamide]",> 5000 nM,–,–,100 to 1000 nM
"Cc1sc2c(c1C)C(c1ccc(Cl)cc1)=N[C@@H](CC(=O)N1CCN(C(=O)/C=C/C(=O)Nc3cccn(C)c3=O)CC1)c1nnc(C)n1-2 [Compound 247, (S,E)-4-(4-(2-(4-(4-chlorophenyl)-2,3,9-trimethyl-6H-thieno[3,2-f][1,2,4]triazolo[4,3-a][1,4]diazepin-6-yl)acetyl)piperazin-1-yl)-N-(1-methyl-2-oxo-1,2-dihydropyridin-3-yl)-4-oxobut-2-enamide]",–,–,100 to 1000 nM,100 to 1000 nM
"Cc1sc2c(c1C)C(c1ccc(Cl)cc1)=N[C@@H](CC(=O)N1CCN(C(=O)/C=C/C(=O)N3CCOCC3)CC1)c1nnc(C)n1-2 [Compound 248, (S,E)-1-(4-(2-(4-(4-chlorophenyl)-2,3,9-trimethyl-6H-thieno[3,2-f][1,2,4]triazolo[4,3-a][1,4]diazepin-6-yl)acetyl)piperazin-1-yl)-4-morpholinobut-2-ene-1,4-dione]",> 5000 nM,> 5000 nM,–,–
"Cc1sc2c(c1C)C(c1ccc(Cl)cc1)=N[C@@H](CC(=O)N[C@H]1C[C@@H](NC(=O)/C=C/C(=O)N3CCOCC3)C1)c1nnc(C)n1-2 [Compound 249, (E)-N-((1R,3s)-3-(2-((S)-4-(4-chlorophenyl)-2,3,9-trimethyl-6H-thieno[3,2-f][1,2,4]triazolo[4,3-a][1,4]diazepin-6-yl)acetamido)cyclobutyl)-4-morpholino-4-oxobut-2-enamide]",> 5000 nM,> 5000 nM,–,–
"Cc1sc2c(c1C)C(c1ccc(Cl)cc1)=N[C@@H](CC(=O)N[C@H]1C[C@H](NC(=O)/C=C/C(=O)N3CCOCC3)C1)c1nnc(C)n1-2 [Compound 250, (E)-N-((1S,3r)-3-(2-((S)-4-(4-chlorophenyl)-2,3,9-trimethyl-6H-thieno[3,2-f][1,2,4]triazolo[4,3-a][1,4]diazepin-6-yl)acetamido)cyclobutyl)-4-morpholino-4-oxobut-2-enamide]",> 5000 nM,> 5000 nM,–,–
"COc1ccc2c(c1)CCCN2C(=O)/C=C/C(=O)N1CCN(C(=O)C[C@@H]2N=C(c3ccc(Cl)cc3)c3c(sc(C)c3C)-n3c(C)nnc32)CC1 [Compound 251, (S,E)-1-(4-(2-(4-(4-chlorophenyl)-2,3,9-trimethyl-6H-thieno[3,2-f][1,2,4]triazolo[4,3-a][1,4]diazepin-6-yl)acetyl)piperazin-1-yl)-4-(6-methoxy-3,4-dihydroquinolin-1(2H)-yl)but-2-ene-1,4-dione]",> 5000 nM,10 to 100 nM,–,–
"COc1ccc2c(c1)CCN(C(=O)/C=C/C(=O)N1CCN(C(=O)C[C@@H]3N=C(c4ccc(Cl)cc4)c4c(sc(C)c4C)-n4c(C)nnc43)CC1)C2 [Compound 252, (S,E)-1-(4-(2-(4-(4-chlorophenyl)-2,3,9-trimethyl-6H-thieno[3,2-f][1,2,4]triazolo[4,3-a][1,4]diazepin-6-yl)acetyl)piperazin-1-yl)-4-(6-methoxy-3,4-dihydroisoquinolin-2(1H)-y1)but-2-ene-1,4-dione]",> 5000 nM,> 5000 nM,–,–
"Cc1sc2c(c1C)C(c1ccc(Cl)cc1)=N[C@@H](CC(=O)NC1CC(NC(=O)/C=C/C(=O)N3CC4(COC4)C3)C1)c1nnc(C)n1-2 (stereo partly drawn) [Compound 253, (S,E)-N-(3-(2-(4-(4-chlorophenyl)-2,3,9-trimethyl-6H-thieno[3,2-f][1,2,4]triazolo[4,3-a][1,4]diazepin-6-yl)acetamido)cyclobutyl)-4-oxo-4-(2-oxa-6-azaspiro[3.3]heptan-6-yl)but-2-enamide]",> 5000 nM,> 5000 nM,–,–
"Cc1sc2c(c1C)C(c1ccc(Cl)cc1)=N[C@@H](CC(=O)N[C@H]1C[C@@H](NC(=O)/C=C/C(=O)C(C)(C)C)C1)c1nnc(C)n1-2 [Compound 277, (E)-N-((1R,3s)-3-(2-((S)-4-(4-chlorophenyl)-2,3,9-trimethyl-6H-thieno[3,2-f][1,2,4]triazolo[4,3-a][1,4]diazepin-6-yl)acetamido)cyclobutyl)-5,5-dimethyl-4-oxohex-2-enamide]",10 to 100 nM,10 to 100 nM,–,–
"Cc1sc2c(c1C)C(c1ccc(Cl)cc1)=N[C@@H](CC(=O)N[C@H]1C[C@H](NC(=O)/C=C/C(=O)C(C)(C)C)C1)c1nnc(C)n1-2 [Compound 278, (E)-N-((1S,3r)-3-(2-((S)-4-(4-chlorophenyl)-2,3,9-trimethyl-6H-thieno[3,2-f][1,2,4]triazolo[4,3-a][1,4]diazepin-6-yl)acetamido)cyclobutyl)-5,5-dimethyl-4-oxohex-2-enamide]",10 to 100 nM,10 to 100 nM,–,–
"COc1ccc(/C=C/S(=O)(=O)N2CCN(C(=O)C[C@@H]3N=C(c4ccc(Cl)cc4)c4c(sc(C)c4C)-n4c(C)nnc43)CC2)cc1 [Compound 279, (S,E)-2-(4-(4-chlorophenyl)-2,3,9-trimethyl-6H-thieno[3,2-f][1,2,4]triazolo[4,3-a][1,4]diazepin-6-yl)-1-(4-((4-methoxystyryl)sulfonyl)piperazin-1-yl)ethan-1-one]",> 5000 nM,> 5000 nM,–,–
"Cc1sc2c(c1C)C(c1ccc(Cl)cc1)=N[C@@H](CC(=O)N[C@H]1C[C@H](NC(=O)/C=C/C(=O)c3ccc(Cl)cc3Cl)C1)c1nnc(C)n1-2 [Compound 281, (E)-N-((1S,3r)-3-(2-((S)-4-(4-chlorophenyl)-2,3,9-trimethyl-6H-thieno[3,2-f][1,2,4]triazolo[4,3-a][1,4]diazepin-6-yl)acetamido)cyclobutyl)-4-(2,4-dichlorophenyl)-4-oxobut-2-enamide]",–,–,100 to 1000 nM,100 to 1000 nM
"Cc1sc2c(c1C)C(c1ccc(Cl)cc1)=N[C@@H](CC(=O)N[C@H]1C[C@H](NC(=O)/C=C/C(=O)c3cccc(Cl)c3Cl)C1)c1nnc(C)n1-2 [Compound 287, (E)-N-((1S,3r)-3-(2-((S)-4-(4-chlorophenyl)-2,3,9-trimethyl-6H-thieno[3,2-f][1,2,4]triazolo[4,3-a][1,4]diazepin-6-yl)acetamido)cyclobutyl)-4-(2,3-dichlorophenyl)-4-oxobut-2-enamide]",1000 to 5000 nM,1000 to 5000 nM,–,–
"Cc1sc2c(c1C)C(c1ccc(Cl)cc1)=N[C@@H](CC(=O)N[C@H]1C[C@H](NC(=O)/C=C/C(=O)c3cc(Cl)ccc3Cl)C1)c1nnc(C)n1-2 [Compound 288, (E)-N-((1S,3r)-3-(2-((S)-4-(4-chlorophenyl)-2,3,9-trimethyl-6H-thieno[3,2-f][1,2,4]triazolo[4,3-a][1,4]diazepin-6-yl)acetamido)cyclobutyl)-4-(2,5-dichlorophenyl)-4-oxobut-2-enamide]",–,–,100 to 1000 nM,100 to 1000 nM
